Assay results taken from US20250206732A1, “COMPOUNDS AND METHODS FOR THE TARGETED DEGRADATION OF KRAS” (Arvinas Operations, Inc., priority 2022, published 2025).

Target: T1, AsPC-1 HiBiT-KRASG12D (Homo sapiens, UniProt P01116, G12D)
T1 construct: insert the HiBiT tag onto the N-terminus of one or more of the endogenous KRAS alleles; endogenous in cells; host or cells: AsPC-1 (ATCC CRL-1682), CRISPR-Cas9 knock-in clone, one tagged allele
Test: HiBiT degradation assay (G12D), AsPC-1 HiBiT-KRASG12D cells
Assay type: cell-based
Conditions: 24 hours treatment; for Dmax: ASPC1, AsPC-1 HiBiT-KRASG12D cells, maximum degradation observed; for DC50: AsPC-1 HiBiT-KRASG12D cells, HiBiT luminescence
Procedure, shortened: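 Luminescence read-out of HiBiT-tagged endogenous KRASG12D in AsPC-1 cells after 24 h compound exposure at 37° C; lytic Nano-Glo HiBiT detection, 45 min at room temperature. A parallel alamar blue read (4 h) checked viability, normalized to DMSO-only controls.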

T1 sequence (P01116 1-188 isoform P01116-2 G12D): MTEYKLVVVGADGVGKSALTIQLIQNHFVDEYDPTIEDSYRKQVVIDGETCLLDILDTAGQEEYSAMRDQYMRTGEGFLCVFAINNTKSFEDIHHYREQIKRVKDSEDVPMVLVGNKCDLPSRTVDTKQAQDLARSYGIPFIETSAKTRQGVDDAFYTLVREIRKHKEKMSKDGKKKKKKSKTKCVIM

Structure (SMILES) | Dmax | DC50
Cc1ncsc1-c1ccc([C@H](C)NC(=O)[C@@H]2C[C@@H](O)CN2C(=O)[C@@H](c2cc(OC[C@@H]3CC[C@]4(COc5nc(N6CC7CCC(C6)N7)c6cnc(-c7cc(O)cc(Cl)c7C7CC7)c(F)c6n5)CCCN34)no2)C(C)C)cc1 [Compound 64, (2S,4R)-1-[(2R)-2-(3-{[(3S,7aS)-7a-({[7-(3-chloro-2-cyclopropyl-5-hydroxyphenyl)-4-{3,8-diazabicyclo[3.2.1]octan-3-yl}-8-fluoropyrido[4,3-d]pyrimidin-2-yl]oxy}methyl)-hexahydro-1H-pyrrolizin-3-yl]methoxy}-1,2-oxazol-5-yl)-3-methylbutanoyl]-4-hydroxy-N-[(1S)-1-[4-(4-methyl-1,3-thiazol-5-yl)phenyl]ethyl]pyrrolidine-2-carboxamide] | 20 to 60% | < 600 nM
C#Cc1c(F)ccc2cc(O)cc(-c3ncc4c(N5CC6CCC(C5)N6)nc(OC[C@@]56CCCN5[C@H](COc5cc([C@@H](C(=O)N7C[C@H](O)C[C@H]7C(=O)N[C@@H](C)c7ccc(-c8scnc8C)cc7)C(C)C)on5)CC6)nc4c3F)c12 [Compound 315, (2S,4R)-1-[(2S)-2-[3-[[(3S,8S)-8-[[4-(3,8-diazabicyclo[3.2.1]octan-3-yl)-7-(8-ethynyl-7-fluoro-3-hydroxy-1-naphthyl)-8-fluoro-pyrido[4,3-d]pyrimidin-2-yl]oxymethyl]-1,2,3,5,6,7-hexahydropyrrolizin-3-yl]methoxy]isoxazol-5-yl]-3-methyl-butanoyl]-4-hydroxy-N-[(1S)-1-[4-(4-methylthiazol-5-yl)phenyl]ethyl]pyrrolidine-2-carboxamide] |  | > 3000 nM
CCc1cccc2cc(O)cc(-c3ncc4c(N5CC6CCC(C5)N6)nc(N5CC(CN6CCC(CC7CN(c8cc([C@H](C(=O)N9C[C@H](O)C[C@H]9C(=O)N[C@@H](C)c9ccc(-c%10scnc%10C)cc9)C(C)C)on8)C7)CC6)C5)nc4c3F)c12 [Compound 182, (2S,4R)-1-[(2R)-2-(3-{3-[(1-{[1-(4-{3,8-diazabicyclo[3.2.1]octan-3-yl}-7-(8-ethyl-3-hydroxynaphthalen-1-yl)-8-fluoropyrido[4,3-d]pyrimidin-2-yl)azetidin-3-yl]methyl}piperidin-4-yl)methyl]azetidin-1-yl}-1,2-oxazol-5-yl)-3-methylbutanoyl]-4-hydroxy-N-[(1S)-1-[4-(4-methyl-1,3-thiazol-5-yl)phenyl]ethyl]pyrrolidine-2-carboxamide] | 20 to 60% | < 600 nM
CCc1cccc2cc(O)cc(-c3ncc4c(N5CC6CCC(C5)N6)nc(OCCN5CCC(C6CN(c7cc([C@@H](C(=O)N8C[C@H](O)C[C@H]8C(=O)N[C@@H](C)c8ccc(-c9scnc9C)cc8)C(C)C)on7)C6)CC5)nc4c3F)c12 (single isomer, unassigned) [Compound 277] | 20 to 60% | 1000 to 3000 nM
CCc1cccc2cc(O)cc(-c3ncc4c(N5CC6CCC(C5)N6)nc(OC[C@]56CCCN5[C@H](COC(=O)N5CC(COc7cc([C@H](C(=O)N8C[C@H](O)C[C@H]8C(=O)N[C@@H](C)c8ccc(-c9scnc9C)cc8)C(C)C)on7)C5)CC6)nc4c3F)c12 [Compound 121, [(3S,7aR)-7a-{[(4-{3,8-diazabicyclo[3.2.1]octan-3-yl}-7-(8-ethyl-3-hydroxynaphthalen-1-yl)-8-fluoropyrido[4,3-d]pyrimidin-2-yl)oxy]methyl}-hexahydro-1H-pyrrolizin-3-yl]methyl 3-[({5-[(2R)-1-[(2S,4R)-4-hydroxy-2-{[(1S)-1-[4-(4-methyl-1,3-thiazol-5-yl)phenyl]ethyl]carbamoyl}pyrrolidin-1-yl]-3-methyl-1-oxobutan-2-yl]-1,2-oxazol-3-yl}oxy)methyl]azetidine-1-carboxylate] | 80 to 100% | < 600 nM
CCc1cccc2cc(O)cc(-c3ncc4c(N5CC6CCC(C5)N6)nc(OC[C@]56CCCN5[C@H](COc5cc([C@H](C(=O)N7C[C@H](O)C[C@H]7C(=O)N[C@@H](C)c7ccc(-c8scnc8C)cc7)C(C)C)on5)CC6)nc4c3F)c12 [Compound 323, (2S,4R)-1-[(2R)-2-(3-{[(3S,7aR)-7a-{[(4-{3,8-diazabicyclo[3.2.1]octan-3-yl}-7-(8-ethyl-3-hydroxynaphthalen-1-yl)-8-fluoropyrido[4,3-d]pyrimidin-2-yl)oxy]methyl}-hexahydro-1H-pyrrolizin-3-yl]methoxy}-1,2-oxazol-5-yl)-3-methylbutanoyl]-4-hydroxy-N-[(1S)-1-[4-(4-methyl-1,3-thiazol-5-yl)phenyl]ethyl]pyrrolidine-2-carboxamide] | 60 to 80% | 
CCc1cccc2cc(O)cc(-c3ncc4c(N5CC6CCC(C5)N6)nc(OCCN5CCC(CCC6CN(c7cc([C@@H](C(=O)N8C[C@H](O)C[C@H]8C(=O)N[C@@H](C)c8ccc(-c9scnc9C)cc8)C(C)C)on7)C6)CC5)nc4c3F)c12 (single isomer, unassigned) [Compound 253, (2S,4R)-1-[(2R*)-2-(3-{3-[2-(1-{2-[(4-{3,8-diazabicyclo[3.2.1]octan-3-yl}-7-(8-ethyl-3-hydroxynaphthalen-1-yl)-8-fluoropyrido[4,3-d]pyrimidin-2-yl)oxy]ethyl}piperidin-4-yl)ethyl]azetidin-1-yl}-1,2-oxazol-5-yl)-3-methylbutanoyl]-4-hydroxy-N-[(1S)-1-[4-(4-methyl-1,3-thiazol-5-yl)phenyl]ethyl] pyrrolidine-2-carboxamide] | 20 to 60% | 1000 to 3000 nM
CCc1cccc2cc(O)cc(-c3ncc4c(N5CC6CCC(C5)N6)nc(OC[C@@]56CCCN5[C@H](CN5CCC(F)(COc7cc([C@@H](C(=O)N8C[C@H](O)C[C@H]8C(=O)N[C@@H](C)c8ccc(-c9scnc9C)cc8)C(C)C)on7)CC5)CC6)nc4c3F)c12 [Compound 336, (2S,4R)-1-[(2S)-2-[3-[[1-[[(3S,8S)-8-[[4-(3,8-diazabicyclo[3.2.1]octan-3-yl)-7-(8-ethyl-3-hydroxy-1-naphthyl)-8-fluoro-pyrido[4,3-d]pyrimidin-2-yl]oxymethyl]-1,2,3,5,6,7-hexahydropyrrolizin-3-yl]methyl]-4-fluoro-4-piperidyl]methoxy]isoxazol-5-yl]-3-methyl-butanoyl]-4-hydroxy-N-[(1S)-1-[4-(4-methylthiazol-5-yl)phenyl]ethyl]pyrrolidine-2-carboxamide] | 20 to 60% | 1000 to 3000 nM
CCc1cccc2cc(O)cc(-c3ncc4c(N5CC6CCC(C5)N6)nc(OC[C@@H]5CC[C@@H](COC(=O)N6CCN(c7cc([C@@H](C(=O)N8C[C@H](O)C[C@H]8C(=O)N[C@@H](C)c8ccc(-c9scnc9C)cc8)C(C)C)on7)[C@H](C)C6)N5C)nc4c3F)c12 [Compound 298, [(2S,5S)-5-[[4-(3,8-diazabicyclo[3.2.1]octan-3-yl)-7-(8-ethyl-3-hydroxy-1-naphthyl)-8-fluoro-pyrido[4,3-d]pyrimidin-2-yl]oxymethyl]-1-methyl-pyrrolidin-2-yl]methyl (3R)-4-[5-[(1S)-1-[(2S,4R)-4-hydroxy-2-[[(1S)-1-[4-(4-methylthiazol-5-yl)phenyl]ethyl]carbamoyl]pyrrolidine-1-carbonyl]-2-methyl-propyl]isoxazol-3-yl]-3-methyl-piperazine-1-carboxylate] |  | > 3000 nM
CCc1cccc2cc(O)cc(-c3ncc4c(N5CC6CCC(C5)N6)nc(OCCN5CCC(F)(CC6CCN(c7cc([C@H](C(=O)N8C[C@H](O)C[C@H]8C(=O)N[C@@H](C)c8ccc(-c9scnc9C)cc8)C(C)C)on7)CC6)CC5)nc4c3F)c12 [Compound 239] | 80 to 100% | < 600 nM
CCc1cccc2cc(O)cc(-c3ncc4c(N5CC6CCC(C5)N6)nc(OC[C@@]56CCCN5[C@H](COC(=O)N5C[C@@H](C)N(c7cc([C@H](C(=O)N8C[C@H](O)C[C@H]8C(=O)N[C@@H](C)c8ccc(-c9scnc9C)cc8)C(C)C)on7)C[C@@H]5C)CC6)nc4c3F)c12 (stereo in doubt) [Compound 299, [(3S,8R)-8-[[4-(3,8-diazabicyclo[3.2.1]octan-3-yl)-7-(8-ethyl-3-hydroxy-1-naphthyl)-8-fluoro-pyrido[4,3-d]pyrimidin-2-yl]oxymethyl]-1,2,3,5,6,7-hexahydropyrrolizin-3-yl]methyl (2S,5R)-4-[5-[(1R)-1-[(2S,4R)-4-hydroxy-2-[[(1S)-1-[4-(4-methylthiazol-5-yl)phenyl]ethyl]carbamoyl]pyrrolidine-1-carbonyl]-2-methyl-propyl]isoxazol-3-yl]-2,5-dimethyl-piperazine-1-carboxylate] | 80 to 100% | < 600 nM
CCc1cccc2cccc(-c3ncc4c(N5CCCCCC5)nc(OC[C@]56CCCN5[C@H](COC(=O)N5CCN(c7cc([C@H](C(=O)N8C[C@H](O)C[C@H]8C(=O)N[C@@H](C)c8ccc(-c9scnc9C)cc8)C(C)C)on7)CC5)CC6)nc4c3F)c12 (relative stereo) [Compound 331] |  | > 3000 nM
CCc1cccc2cc(O)cc(-c3ncc4c(N5CC6CCC(C5)N6)nc(N5CCC(CN6CCC(CC7CN(c8cc([C@H](C(=O)N9C[C@H](O)C[C@H]9C(=O)N[C@@H](C)c9ccc(-c%10scnc%10C)cc9)C(C)C)on8)C7)CC6)CC5)nc4c3F)c12 [Compound 192, (2S,4R)-1-[(2R)-2-(3-{3-[(1-{[1-(4-{3,8-diazabicyclo[3.2.1]octan-3-yl}-7-(8-ethyl-3-hydroxynaphthalen-1-yl)-8-fluoropyrido[4,3-d]pyrimidin-2-yl)piperidin-4-yl]methyl}piperidin-4-yl)methyl]azetidin-1-yl}-1,2-oxazol-5-yl)-3-methylbutanoyl]-4-hydroxy-N-[(1S)-1-[4-(4-methyl-1,3-thiazol-5-yl)phenyl]ethyl]pyrrolidine-2-carboxamide] |  | > 3000 nM
